From PMC11258682, “Mechanoresponsive Protein Crystals for NADH Recycling in Multicycle Enzyme Reactions” (Journal of the American Chemical Society, 2024) come the findings set out here.

The assay concerns the target Cry3Aa (Bacillus thuringiensis, UniProt P0A379). The conditions noted are these: solid crystals, non-specific electrostatic adsorption likely; no PEI.

Molecules are shown by their SMILES.

Sequence of Cry3Aa (P0A379 58-644 limits assumed): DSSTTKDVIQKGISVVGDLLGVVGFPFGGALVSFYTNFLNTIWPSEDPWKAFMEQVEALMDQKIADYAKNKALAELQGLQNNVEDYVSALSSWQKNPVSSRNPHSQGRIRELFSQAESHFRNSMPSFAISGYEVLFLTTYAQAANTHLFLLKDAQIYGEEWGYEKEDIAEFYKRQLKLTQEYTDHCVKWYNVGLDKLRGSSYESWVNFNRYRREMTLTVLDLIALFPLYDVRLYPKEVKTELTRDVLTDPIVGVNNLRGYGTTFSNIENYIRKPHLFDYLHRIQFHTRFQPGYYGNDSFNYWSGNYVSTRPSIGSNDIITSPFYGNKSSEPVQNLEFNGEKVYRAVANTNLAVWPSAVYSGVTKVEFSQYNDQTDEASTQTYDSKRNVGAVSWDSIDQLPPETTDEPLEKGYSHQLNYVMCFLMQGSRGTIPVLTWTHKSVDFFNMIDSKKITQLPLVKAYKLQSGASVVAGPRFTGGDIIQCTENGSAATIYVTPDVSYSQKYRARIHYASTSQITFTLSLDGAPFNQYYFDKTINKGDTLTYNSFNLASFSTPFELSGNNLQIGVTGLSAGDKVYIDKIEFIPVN

As to `NC(=O)C1=CN([C@@H]2O[C@H](COP(=O)(O)OP(=O)(O)OC[C@H]3O[C@@H](n4cnc5c(N)ncnc54)[C@H](O)[C@@H]3O)[C@@H](O)[C@H]2O)C=CC1` [NADH], the “amount of NADH bound” value was 6 ± 2 µmol/g.
